Reference: patent publication US7851637B2, “Compounds and methods for inhibiting the interaction of BCL proteins with binding partners” (Infinity Pharmaceuticals, Inc., priority 2004, dated 2010)
Each block holds one molecule with its values, some of them ahead of it.

Tests used:
[1] = biological target: Bcl-xL (Homo sapiens, UniProt Q07817); assay: Bcl-xL binding affinity analysis (fluorescence polarization binding assay); parameters: scale not given here
From the text: (§1) Bcl-2 and Bcl-xL binding can be determined using a variety of known methods. One such assay is a sensitive and quantitative in vitro binding assay using fluorescence polarization (FP) described by Wang, J. -L.; Zhang, Z -J.; Choksi, S.; Sjam. S.; Lu, Z.; Croce, C. M.; Alnenri, E. S.; Komgold, R.; Huang, Z. Cell permeable Bcl-2 binding peptides: a chemical approach to apoptosis induction in tumor cells. Cancer Res. 2000, 60, 1498-1502).
(§2) Bcl-2 and Bcl-xL binding affinity analysis data is presented below for various compounds of the invention.

[2] = biological target: Bcl-2 (Homo sapiens, UniProt P10415); assay: Bcl-2 binding affinity analysis (fluorescence polarization binding assay)
Sequence of Bcl-2 (P10415 whole entry): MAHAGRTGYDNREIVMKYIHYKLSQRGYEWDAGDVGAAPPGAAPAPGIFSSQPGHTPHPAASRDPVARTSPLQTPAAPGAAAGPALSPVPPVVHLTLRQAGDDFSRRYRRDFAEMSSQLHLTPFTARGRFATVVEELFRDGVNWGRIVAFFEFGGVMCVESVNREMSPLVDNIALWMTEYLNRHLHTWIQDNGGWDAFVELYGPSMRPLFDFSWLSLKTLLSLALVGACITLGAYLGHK
From the text: as §1, §2

Sequence of Bcl-xL (Q07817 whole entry): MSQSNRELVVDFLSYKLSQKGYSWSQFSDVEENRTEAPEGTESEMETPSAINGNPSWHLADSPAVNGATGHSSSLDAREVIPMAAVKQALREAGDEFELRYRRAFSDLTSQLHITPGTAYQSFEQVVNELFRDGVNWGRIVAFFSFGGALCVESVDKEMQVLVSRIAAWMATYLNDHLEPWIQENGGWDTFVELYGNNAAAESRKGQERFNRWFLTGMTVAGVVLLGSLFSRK

Compound: C[C@@H]1[C@@H](NC(=O)[C@@H]2[C@H]([C@H](C)O)[C@H](CO)ON2Cc2cccc(-c3cccc(C(=O)NCCO)c3)c2)C[C@H]2C[C@@H]1C2(C)C [Compound 218]
Bcl-XL binding affinity Ki [1]: ♯
Ki [2]: < 0.8 µM

Compound: CC(C)C[C@@H](CN(C)C)NC(=O)c1cccc(-c2cccc(CN3O[C@@H](CO)[C@@H]([C@H](C)O)[C@H]3C(=O)N[C@H]3C[C@H]4C[C@@H]([C@@H]3C)C4(C)C)c2)c1 [Compound 97]
Bcl-XL binding affinity Ki [1]: ♯♯
Ki [2]: 0.8 to 6 µM

Compound: C[C@@H]1[C@@H](NC(=O)[C@@H]2[C@H]([C@H](C)O)[C@H](CO)ON2Cc2cccc(-c3cccc(O)c3)c2)C[C@H]2C[C@@H]1C2(C)C [Compound 147]
Bcl-XL binding affinity Ki [1]: ♯♯
Ki [2]: < 0.8 µM

Compound: C[C@H](O)[C@@H]1[C@H](CO)ON(Cc2cccc(CN(CCN(C)C)CC3CCCCC3)c2)[C@@H]1C(=O)NC1C[C@H]2C[C@@H]([C@@H]1C)C2(C)C (stereo partly shown) [Compound 190]
Bcl-XL binding affinity Ki [1]: ♯
Ki [2]: < 0.8 µM

Compound: CC(O)[C@H]1[C@@H](CO)ON(Cc2cccc(C#CC(C)(C)c3ccccc3)c2)[C@H]1C(=O)NCCCN(C)c1ccccc1 (stereo partly shown) [Compound 31]
Bcl-XL binding affinity Ki [1]: ♯
Ki [2]: 0.8 to 6 µM

Compound: CC(=O)NCCNC(=O)c1cccc(-c2cccc(CN3O[C@@H](CO)[C@@H]([C@H](C)O)[C@H]3C(=O)N[C@H]3C[C@H]4C[C@@H]([C@@H]3C)C4(C)C)c2)c1 [Compound 146]
Bcl-XL binding affinity Ki [1]: ♯
Ki [2]: < 0.8 µM

Compound: C[C@@H]1[C@@H](NC(=O)[C@@H]2[C@H]([C@H](C)O)[C@H](CO)ON2Cc2cccc(N3CCN(C(=O)NCc4ccccc4)CC3)c2)C[C@H]2C[C@@H]1C2(C)C [Compound 260]
Bcl-XL binding affinity Ki [1]: ♯
Ki [2]: < 0.8 µM

Compound: CNC(=O)c1cccc(-c2cccc(CN3O[C@@H](CO)[C@@H]([C@H](C)O)[C@H]3C(=O)N[C@H]3C[C@H]4C[C@@H]([C@@H]3C)C4(C)C)c2)c1 [Compound 220]
Bcl-XL binding affinity Ki [1]: ♯
Ki [2]: < 0.8 µM

Compound: CCN1CCC[C@@H]1CNC(=O)c1cccc(-c2cccc(CN3O[C@@H](CO)[C@@H]([C@H](C)O)[C@H]3C(=O)N[C@H]3C[C@H]4C[C@@H]([C@@H]3C)C4(C)C)c2)c1 [Compound 106]
Bcl-XL binding affinity Ki [1]: ♯
Ki [2]: < 0.8 µM

Compound: C[C@@H]1C(NC(=O)[C@@H]2[C@H]([C@H](C)O)[C@H](CO)ON2Cc2cccc(-c3ccc(NCCN(C)C)cc3)c2)C[C@@H]2CC1C2(C)C (stereo partly shown) [Compound 276]
Bcl-XL binding affinity Ki [1]: ♯
Ki [2]: < 0.8 µM

Compound: C[C@H](O)[C@@H]1[C@H](CO)ON(Cc2cccc(C#C[C@@H](O)c3ccccc3)c2)[C@@H]1C(=O)N[C@H]1C[C@H]2CC([C@@H]1C)C2(C)C [Compound 52]
Bcl-XL binding affinity Ki [1]: ♯
Ki [2]: 0.8 to 6 µM

Compound: C[C@@H](O)[C@@H]1C(C(=O)NCCCn2cnc3ccccc32)N(Cc2cccc(C#CCNC(=O)c3ccccc3)c2)O[C@@H]1CO (stereo partly shown) [Compound 55]
Bcl-XL binding affinity Ki [1]: ♯♯
Ki [2]: > 50 µM

Compound: C[C@@H]1C(NC(=O)[C@@H]2[C@H]([C@H](C)O)[C@H](CO)ON2Cc2cccc(-c3ccc(NC(=O)N(C)C)cc3)c2)C[C@@H]2CC1C2(C)C (stereo partly shown) [Compound 283]
Bcl-XL binding affinity Ki [1]: ♯♯
Ki [2]: < 0.8 µM

Compound: C[C@@H]1[C@@H](NC(=O)[C@@H]2[C@H]([C@H](C)O)[C@H](CO)ON2Cc2cccc(N3CCN(C(=S)NCCc4ccccc4)CC3)c2)C[C@H]2C[C@@H]1C2(C)C [Compound 266]
Bcl-XL binding affinity Ki [1]: ♯
Ki [2]: < 0.8 µM

Compound: C[C@@H](O)[C@H]1[C@@H](CO)ON(Cc2cccc(C#CCNC(=O)c3ccccc3)c2)[C@H]1C(=O)NCc1ccc(-c2ccccc2)cc1 [Compound 60]
Bcl-XL binding affinity Ki [1]: ♯♯
Ki [2]: > 50 µM

Now from value to molecule:

Bcl-XL binding affinity Ki [1]: ♯
Ki [2]: 0.8 to 6 µM
Compound: C[C@H](O)[C@@H]1[C@H](CO)ON(Cc2cccc(CN(CCN(C)C)Cc3ccccc3)c2)[C@@H]1C(=O)N[C@H](C)c1ccc2ccccc2c1 [Compound 522]

Bcl-XL binding affinity Ki [1]: ♯
Ki [2]: < 0.8 µM
Compound: CC(O)C1C(CO)ON(Cc2cccc(CNC(CCc3ccccc3)CN(C)C)c2)C1C(=O)NC1CC2CC(C1C)C2(C)C (stereo not shown) [Compound 445]

Bcl-XL binding affinity Ki [1]: ♯
Ki [2]: 6 to 50 µM
Compound: CC(C)CNC(=O)[C@@H]1[C@H]([C@H](C)O)[C@H](CO)ON1Cc1cccc(CN(Cc2ccccc2)[C@@H](CC(C)C)CN(C)C)c1 [Compound 540]

Bcl-XL binding affinity Ki [1]: ♯
Ki [2]: < 0.8 µM
Compound: CC(C)CC(CN(C)C)N(Cc1cccc(CN2OC(CO)C(C(C)O)C2C(=O)NC2CC3CC(C2C)C3(C)C)c1)Cc1ccc(F)cc1O (stereo not shown) [Compound 329]

Bcl-XL binding affinity Ki [1]: ♯
Ki [2]: < 0.8 µM
Compound: CCCNC(=O)c1ccc(-c2cccc(CN3O[C@@H](CO)[C@@H]([C@H](C)O)[C@H]3C(=O)N[C@H]3C[C@H]4C[C@@H]([C@@H]3C)C4(C)C)c2)cc1 [Compound 299]

Bcl-XL binding affinity Ki [1]: ♯
Ki [2]: 6 to 50 µM
Compound: C[C@H](O)[C@@H]1[C@H](CO)ON(Cc2cccc(CN(CCN(C)C)Cc3ccccc3)c2)[C@@H]1C(=O)NCCCN(C)C [Compound 517]

Bcl-XL binding affinity Ki [1]: ♯
Ki [2]: < 0.8 µM
Compound: CC(=O)Nc1ccc(-c2cccc(CN3O[C@@H](CO)[C@@H]([C@H](C)O)[C@H]3C(=O)NC3C[C@H]4C[C@@H]([C@@H]3C)C4(C)C)c2)cc1 (stereo partly shown) [Compound 294]

Bcl-XL binding affinity Ki [1]: ♯
Ki [2]: 0.8 to 6 µM
Compound: C[C@H](O)[C@@H]1[C@H](CO)ON(Cc2cccc(CN(CCN(C)C)Cc3ccccc3)c2)[C@@H]1C(=O)NCC(c1ccccc1)c1ccccc1 [Compound 520]

Bcl-XL binding affinity Ki [1]: ♯
Ki [2]: < 0.8 µM
Compound: CCOc1cccc(CN(Cc2cccc(CN3O[C@@H](CO)C([C@H](C)O)[C@H]3C(=O)N[C@H]3C[C@H]4C[C@@H]([C@@H]3C)C4(C)C)c2)[C@@H](CC(C)C)CN(C)C)c1O (stereo partly shown) [Compound 334]

Bcl-XL binding affinity Ki [1]: ♯
Ki [2]: 0.8 to 6 µM
Compound: C[C@H](O)[C@@H]1[C@H](CO)ON(Cc2cccc(CN(CCN(C)C)Cc3ccccc3)c2)[C@@H]1C(=O)NCCc1cccc(-c2ccccc2)c1 [Compound 513]

Bcl-XL binding affinity Ki [1]: ♯
Ki [2]: < 0.8 µM
Compound: CC(O)C1C(CO)ON(Cc2cccc(CN3Cc4ccccc4C3C(=O)N(C)C)c2)C1C(=O)NC1CC2CC(C1C)C2(C)C (stereo not shown) [Compound 469]

Bcl-XL binding affinity Ki [1]: ♯
Ki [2]: 6 to 50 µM
Compound: COCCNC(=O)[C@@H]1[C@H]([C@H](C)O)[C@H](CO)ON1Cc1cccc(CN(Cc2ccccc2)[C@@H](CC(C)C)CN(C)C)c1 [Compound 535]

Bcl-XL binding affinity Ki [1]: ♯
Ki [2]: < 0.8 µM
Compound: CC(O)C1C(CO)ON(Cc2cccc(CN(CCN(C)C)Cc3ccccc3N3CCN(C)CC3)c2)C1C(=O)NC1CC2CC(C1C)C2(C)C (stereo not shown) [Compound 385]

Bcl-XL binding affinity Ki [1]: ♯
Ki [2]: < 0.8 µM
Compound: C[C@H](O)[C@@H]1[C@H](CO)ON(Cc2cccc(N3CCN(C(=O)N(C)C)CC3)c2)[C@@H]1C(=O)NC1C[C@H]2C[C@@H]([C@@H]1C)C2(C)C (stereo partly shown) [Compound 291]

Bcl-XL binding affinity Ki [1]: ♯
Ki [2]: 0.8 to 6 µM
Compound: CC(C)C[C@@H](CN(C)C)N(Cc1ccccc1)Cc1cccc(CN2O[C@@H](CO)[C@@H]([C@H](C)O)[C@H]2C(=O)NCc2ccc(-c3ccccc3)cc2)c1 [Compound 536]

Bcl-XL binding affinity Ki [1]: ♯
Ki [2]: < 0.8 µM
Compound: COCCOCCOc1cccc(CN(CCN(C)C)Cc2cccc(CN3OC(CO)C(C(C)O)C3C(=O)NC3CC4CC(C3C)C4(C)C)c2)c1 (stereo not shown) [Compound 407]

Bcl-XL binding affinity Ki [1]: ♯
Ki [2]: 0.8 to 6 µM
Compound: CC(C)CCNC(=O)[C@@H]1[C@H]([C@H](C)O)[C@H](CO)ON1Cc1cccc(CN(Cc2ccccc2)[C@@H](CC(C)C)CN(C)C)c1 [Compound 533]
